Laboratory results taken from the NIST ThermoML archive (doi:10.1016/j.tca.2010.03.028).

How the values were obtained:
[1] = excess molar enthalpy (molar enthalpy of mixing); xn = mol fraction of the nth substance listed; conditions: 308.15 K, 101 kPa, Liquid, Calvet calorimetry
[2] = xn = mol fraction of the nth substance listed; conditions: 308.15 K, 101 kPa, Liquid; for excess molar volume: Direct dilatometry; for speed of sound: Linear variable-path acoustic interferometer

C1CCOCC1 [tetrahydropyran] + C1CCCCC1
Conditions	excess molar enthalpy [kcal/mol]	excess molar volume [m3/mol]	speed of sound [m/s]
[1], x1 = 0.0634	0.0319	–	–
[1], x1 = 0.1146	0.0546	–	–
[1], x1 = 0.2073	0.088	–	–
[1], x1 = 0.2734	0.106	–	–
[1], x1 = 0.3379	0.118	–	–
[1], x1 = 0.3805	0.123	–	–
[1], x1 = 0.4339	0.127	–	–
[1], x1 = 0.5322	0.126	–	–
[1], x1 = 0.6045	0.118	–	–
[1], x1 = 0.6848	0.103	–	–
[1], x1 = 0.7529	0.0864	–	–
[1], x1 = 0.7939	0.0744	–	–
[1], x1 = 0.8564	0.054	–	–
[1], x1 = 0.8976	0.0394	–	–
[2], x1 = 0.0648	–	9.1e-08	–
[2], x1 = 0.0785	–	–	1209
[2], x1 = 0.1372	–	1.72e-07	–
[2], x1 = 0.161	–	–	1205
[2], x1 = 0.1954	–	2.24e-07	–
[2], x1 = 0.1965	–	–	1204
[2], x1 = 0.2351	–	2.53e-07	–
[2], x1 = 0.2477	–	–	1202
[2], x1 = 0.303	–	2.9e-07	–
[2], x1 = 0.3378	–	–	1200
[2], x1 = 0.3575	–	3.1e-07	–
[2], x1 = 0.3879	–	–	1199
[2], x1 = 0.433	–	–	1199
[2], x1 = 0.4351	–	3.23e-07	–
[2], x1 = 0.4712	–	–	1199
[2], x1 = 0.4911	–	3.22e-07	–
[2], x1 = 0.5344	–	–	1200
[2], x1 = 0.5412	–	3.14e-07	–
[2], x1 = 0.5988	–	–	1202
[2], x1 = 0.6421	–	–	1203
[2], x1 = 0.6536	–	2.76e-07	–
[2], x1 = 0.721	–	2.4e-07	–
[2], x1 = 0.7533	–	–	1209
[2], x1 = 0.7952	–	1.9e-07	–
[2], x1 = 0.8066	–	–	1212
[2], x1 = 0.8827	–	1.17e-07	–
[2], x1 = 0.9325	–	7e-08	–

C1CCOCC1 [tetrahydropyran] + CCCCCCC
Conditions	excess molar enthalpy [kcal/mol]	excess molar volume [m3/mol]	speed of sound [m/s]
[1], x1 = 0.0842	0.0387	–	–
[1], x1 = 0.1777	0.0796	–	–
[1], x1 = 0.2324	0.101	–	–
[1], x1 = 0.3339	0.132	–	–
[1], x1 = 0.3741	0.141	–	–
[1], x1 = 0.4413	0.15	–	–
[1], x1 = 0.5008	0.153	–	–
[1], x1 = 0.5989	0.147	–	–
[1], x1 = 0.6821	0.13	–	–
[1], x1 = 0.7124	0.122	–	–
[1], x1 = 0.7654	0.104	–	–
[1], x1 = 0.8325	0.0779	–	–
[1], x1 = 0.8778	0.0581	–	–
[1], x1 = 0.9213	0.0379	–	–
[2], x1 = 0.0543	–	5.7e-08	–
[2], x1 = 0.0833	–	–	1100
[2], x1 = 0.113	–	1.11e-07	–
[2], x1 = 0.1323	–	–	1107
[2], x1 = 0.1977	–	–	1117
[2], x1 = 0.2031	–	1.77e-07	–
[2], x1 = 0.2396	–	–	1127
[2], x1 = 0.2613	–	2.1e-07	–
[2], x1 = 0.2998	–	2.28e-07	–
[2], x1 = 0.3245	–	–	1137
[2], x1 = 0.3475	–	2.45e-07	–
[2], x1 = 0.3812	–	–	1145
[2], x1 = 0.3991	–	2.58e-07	–
[2], x1 = 0.4396	–	–	1154
[2], x1 = 0.4441	–	2.65e-07	–
[2], x1 = 0.4964	–	2.68e-07	–
[2], x1 = 0.5033	–	–	1163
[2], x1 = 0.5601	–	2.64e-07	–
[2], x1 = 0.5684	–	–	1172
[2], x1 = 0.6107	–	2.55e-07	–
[2], x1 = 0.6161	–	–	1178
[2], x1 = 0.688	–	–	1187
[2], x1 = 0.7123	–	2.2e-07	–
[2], x1 = 0.7646	–	–	1197
[2], x1 = 0.8011	–	1.72e-07	–
[2], x1 = 0.8223	–	–	1204
[2], x1 = 0.8999	–	9.8e-08	–
[2], x1 = 0.9044	–	–	1213

C1CCOCC1 [tetrahydropyran] + CCCCCC
Conditions	excess molar enthalpy [kcal/mol]	excess molar volume [m3/mol]	speed of sound [m/s]
[1], x1 = 0.0581	0.0246	–	–
[1], x1 = 0.1073	0.044	–	–
[1], x1 = 0.1962	0.075	–	–
[1], x1 = 0.2274	0.0844	–	–
[1], x1 = 0.3276	0.109	–	–
[1], x1 = 0.3888	0.12	–	–
[1], x1 = 0.4395	0.126	–	–
[1], x1 = 0.4968	0.13	–	–
[1], x1 = 0.522	0.131	–	–
[1], x1 = 0.5931	0.129	–	–
[1], x1 = 0.6634	0.121	–	–
[1], x1 = 0.7514	0.103	–	–
[1], x1 = 0.8124	0.0849	–	–
[1], x1 = 0.8997	0.0509	–	–
[2], x1 = 0.0328	–	1.4e-08	–
[2], x1 = 0.0459	–	1.9e-08	–
[2], x1 = 0.0694	–	2.7e-08	–
[2], x1 = 0.0785	–	3e-08	–
[2], x1 = 0.0981	–	–	1054
[2], x1 = 0.1294	–	4.4e-08	–
[2], x1 = 0.1561	–	4.9e-08	–
[2], x1 = 0.1578	–	–	1067
[2], x1 = 0.1965	–	–	1075
[2], x1 = 0.2753	–	6.4e-08	–
[2], x1 = 0.2955	–	–	1093
[2], x1 = 0.3262	–	6.6e-08	–
[2], x1 = 0.3313	–	–	1099
[2], x1 = 0.3955	–	–	1110
[2], x1 = 0.4469	–	–	1118
[2], x1 = 0.4629	–	6.2e-08	–
[2], x1 = 0.4947	–	–	1126
[2], x1 = 0.515	–	5.8e-08	–
[2], x1 = 0.5211	–	–	1130
[2], x1 = 0.5955	–	–	1143
[2], x1 = 0.6692	–	4.2e-08	–
[2], x1 = 0.6955	–	–	1161
[2], x1 = 0.7311	–	–	1168
[2], x1 = 0.7837	–	2.8e-08	–
[2], x1 = 0.7965	–	–	1181
[2], x1 = 0.8461	–	2e-08	–
[2], x1 = 0.8992	–	–	1203
[2], x1 = 0.9239	–	1e-08	–
